Experimental data as given in paper PMC7957705 (Molecules, 2021).
Where a SMILES comes first, the peptide text is derived from it. Bridges are numbered along the chain shown (N, C = ends). Triazole bridges read from a SMILES are 1,4-linked. [ ]: non-standard residue; d: D form. The star is where a group is joined. Benzoyl(4-guanidino) = N=C(N)Nc1ccc(C(=O)*)cc1; Aha = [N-]=[N+]=NCC[C@H](N)C(=O)O; β3hV = CC(C)[C@H](N)CC(=O)O; Nle = CCCC[C@H](N)C(=O)O; Pra = C#CC[C@H](N)C(=O)O

What was measured:
human MCH-R1 = target: T1, human MCH-R1 (Homo sapiens, UniProt Q99705); test: Binding displacement of [125I]-[Phe13,Tyr19]-MCH at membranes expressing human MCH-R1
T1 construct: expressed in transfected cells
Experimental: Stable cell lines were obligatory for all receptor programs. We cloned the human receptor and established the cell line as previously described. In brief, HEK293 (HEK) cells were grown in Dulbecco’s Modified Eagle medium (DMEM) supplemented with 10% fetal calf serum, 2 mM glutamine, 100 IU/mL penicillin and […] streptomycin. They were seeded at 5 × 10^6 cells in T75 cm^2 culture flasks. One day later, they were transfected with […] of the pcDNA3.1 (Invitrogen, Groningen, The Netherlands) containing the human MCH-R1 using lipofectamine (Life Technologies, Cergy Pontoise, France), as previously described. One day later, cells were trypsinized, resuspended in a complete DMEM medium containing […] of geneticin and seeded at different dilutions in 96-well plates which were kept for 2 to 3 weeks in a humidified CO2 incubator. At the end of the selection period, isolated clones were picked up, amplified, and further characterized by cyclic AMP experiments. For each cell line, one positive clone was subcloned before being used for all of the cyclic AMP, [^35S]-GTPγS and receptor binding experiments necessary to characterize them. The stable HEK293 cell line expressing the human MCH-R1 was HEK-hMCH-R1.
Membrane preparations were classically made as previously described. In brief, the HEK-hMCH-R cell line was grown to confluency, harvested in PBS buffer containing 2 mM EDTA and centrifuged at 10,000× g for 5 min (4°C). The resulting pellet was suspended in 20 mM Hepes buffer (pH 7.5), containing 5 mM EGTA and homogenized using a Kinematica polytron. The homogenate was then centrifuged (95,000× g, 30 min, 4 °C) and the resulting pellet was suspended in 50 mM HEPES buffer (pH 7.5), containing 10 mM MgCl2 and 2 mM EGTA. Aliquots of membrane preparations were stored at −80 °C until use. Binding has been described in numerous publications and the test was based on Mac Donald et al.’s description. […] Nonspecific binding is determined in the presence of 0.1 μM MCH. […] The filters are dried and then counted for radioactivity in a scintillation counter (Topcount, Packard) using a scintillation cocktail (Microscint 0, Packard). The results are expressed as percentage inhibition of the control radioligand specific binding. The standard reference compound is MCH, which was tested in each experiment at 8 concentrations to obtain a competition curve from which its IC50 is calculated. The high level of assay robustness and reproducibility of each control monitored over several decades (internal data base, Eurofins) and included in every assay ensure results’ reliability even when performed only twice. […]

[1] = system: high-fat diet-induced obese C57BL/6 mice; conditions: mouse, in vivo
Experimental: Male C57BL/6 mice at 4 weeks of age were provided by BioLasco Taiwan (under Charles River Laboratories Licensee). All animals were maintained in an environment with well-controlled temperature (20–24 °C) and humidity (30–70%) with 12 h light/dark cycles. Free access to standard lab diet (MFG (Oriental Yeast Co., Ltd., Japan)) and autoclaved tap water was granted. […]
The protocol was performed for all groups and all animals. […] Body weight was recorded three times weekly from Week 9. Food/water intake was recorded twice weekly from Week 9. […] At the termination in Week 20 (Day 141), the adipose tissue weight, including epididymal, mesenteric, inguinal, retroperitoneal, and brown fat, was measured after the animals were sacrificed. […] The following parameters were measured: (1) body weight three times weekly; (2) food/water intake twice weekly; (3) blood chemistry in Weeks 8 (before dosing), 16 and 20 including glucose, insulin, serum lipids (triglycerides (TG), total cholesterol (TC), AST, alanine aminotransferase (ALT), uric acid, creatinine, potassium and sodium through 16-h fasting animals; and finally, (4) total body fat (including visceral and subcutaneous fat) in Week 20.

T1 sequence (Q99705 whole entry): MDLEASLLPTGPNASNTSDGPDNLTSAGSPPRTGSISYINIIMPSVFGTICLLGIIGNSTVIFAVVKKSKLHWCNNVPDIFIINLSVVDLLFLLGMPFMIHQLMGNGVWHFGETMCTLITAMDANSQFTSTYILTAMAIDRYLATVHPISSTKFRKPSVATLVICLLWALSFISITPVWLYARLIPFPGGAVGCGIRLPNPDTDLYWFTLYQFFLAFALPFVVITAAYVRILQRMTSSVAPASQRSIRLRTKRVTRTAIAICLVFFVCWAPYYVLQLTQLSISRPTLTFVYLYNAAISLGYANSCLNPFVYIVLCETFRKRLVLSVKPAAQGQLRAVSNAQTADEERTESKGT

`CCCC[C@@H]1NC(=O)[C@@H](NC(=O)c2ccc(NC(=N)N)cc2)CCn2cc(nn2)C[C@@H](C(=O)N[C@@H](Cc2c[nH]c3ccccc23)C(=O)O)NC(=O)[C@@H]2CCCN2C(=O)[C@H](CCCNC(=N)N)NC(=O)C[C@H](C(C)C)NC(=O)[C@H](CCCNC(=N)N)NC(=O)[C@H](CC(C)C)NC1=O` [GPS18169] ({Benzoyl(4-guanidino)}-[Aha][Nle]LR[β3hV]RP[Pra]W-OH; triazole 1-8) was tested, and the “affinity at the MCH-R1 receptor (in words)” value (human MCH-R1) was “low nanomolar range” and the “overt toxicities and behavioral modifications” value [1] was “Neither overt toxicities nor behavioral modifications were observed”.
